# Tests used:
# Assay in all cases: relative viability (nuclei count vs DMSO), 5 days (fraction); higher = more cells survive
# [1] = compound: Nc1nc2[nH]cc(CCc3ccc(C(=O)N[C@@H](CCC(=O)O)C(=O)O)cc3)c2c(=O)[nH]1 [Pemetrexed] + O=C(c1cc(Cc2n[nH]c(=O)c3ccccc23)ccc1F)N1CCN(C(=O)C2CC2)CC1 [Olaparib] (partner 8 µM)
# Method in brief: (§1)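 Lung cancer cell lines were pin-tool dosed in 1536-well plates on the day after seeding, with either a lone drug or a fixed anchor-drug dose plus five library-drug doses (not always all listed) in √10 steps. Nuclei were counted on 4× images after 5 days. Relative viability is the ratio of treated-well to vehicle-well nuclei counts, with each value a median of duplicate plates.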
# [2] = compound: CC[C@H](Nc1ncnc2[nH]cnc12)c1nc2cccc(F)c2c(=O)n1-c1ccccc1 [Idelalisib] + Cc1cc(Nc2cc(N3CCN(C)CC3)nc(Sc3ccc(NC(=O)C4CC4)cc3)n2)n[nH]1 [Tozasertib] (partner 0.1 µM)
# Method in brief: as §1
# [3] = compound: Nc1nc2[nH]cc(CCc3ccc(C(=O)N[C@@H](CCC(=O)O)C(=O)O)cc3)c2c(=O)[nH]1 [Pemetrexed] + CC(C)C[C@H](NC(=O)[C@H](Cc1ccccc1)NC(=O)c1cnccn1)B(O)O [Bortezomib] (partner 0.002 µM)
# Method in brief: as §1
# [4] = compound: CC[C@H](Nc1ncnc2[nH]cnc12)c1nc2cccc(F)c2c(=O)n1-c1ccccc1 [Idelalisib] + C[C@]1(O)C[C@@H](c2nc(-c3ccc4ccc(-c5ccccc5)nc4c3)c3c(N)nccn32)C1 [Linsitinib] (partner 1 µM)
# Method in brief: as §1
Cell Line,relative viability ([1]; first compound 0.002 µM),relative viability ([1]; first compound 0.006325 µM),relative viability ([1]; first compound 0.06325 µM),relative viability ([1]; first compound 0.2 µM),relative viability ([2]; first compound 0.04 µM),relative viability ([2]; first compound 0.1265 µM),relative viability ([2]; first compound 0.4 µM),relative viability ([2]; first compound 1.265 µM),relative viability ([2]; first compound 4 µM),relative viability ([3]; first compound 0.002 µM),relative viability ([3]; first compound 0.006325 µM),relative viability ([3]; first compound 0.02 µM),relative viability ([3]; first compound 0.06325 µM),relative viability ([3]; first compound 0.2 µM),relative viability ([4]; first compound 0.04 µM),relative viability ([4]; first compound 0.1265 µM),relative viability ([4]; first compound 0.4 µM),relative viability ([4]; first compound 1.265 µM),relative viability ([4]; first compound 4 µM),relative viability ([1]; first compound 0.02 µM)
NCI-H650,0.382,0.403,0.302,0.378,0.748,0.767,0.635,0.803,0.69,0.67,0.828,0.748,0.853,0.866,0.934,0.981,0.789,0.798,0.775,
A-427,0.758,0.765,0.759,0.711,0.222,0.222,0.219,0.196,0.181,0.929,1.06,1.04,0.96,1.06,1.08,0.896,1.08,1.13,1.05,0.775
NCI-H2347,0.55,0.527,0.517,0.499,0.591,0.517,0.408,0.443,0.441,0.678,1.26,1.07,0.903,0.599,0.931,0.884,0.857,1.14,0.514,0.678
NCI-H1651,0.175,0.191,0.193,0.184,0.673,0.623,0.615,0.593,0.605,0.992,0.919,0.945,0.892,0.911,0.982,0.903,0.789,0.923,0.714,0.205
HCC-78,,0.792,0.29,0.233,0.314,0.389,0.392,0.388,0.295,0.369,0.436,0.46,0.294,0.322,0.254,0.514,0.346,0.45,0.226,0.662
NCI-H23,0.318,0.335,0.32,0.319,0.39,0.528,0.363,,0.334,0.865,0.924,1.02,1.06,0.725,0.693,0.592,0.436,0.499,0.474,0.331
LOU-NH91,0.864,0.886,0.819,0.455,0.749,0.641,0.651,0.557,0.708,0.515,0.558,0.52,0.467,0.472,0.942,0.88,0.904,0.683,0.864,0.93
LXF-289,1.07,1.04,1.03,0.976,0.259,0.189,0.195,0.14,0.235,0.987,0.993,1.08,0.976,0.943,1,0.978,0.938,1.07,0.978,1.1
NCI-H460,0.237,0.35,0.437,0.116,0.626,0.397,0.436,0.447,0.255,1.06,1,1.16,0.177,0.0656,0.834,0.801,0.624,0.681,0.56,0.484
EMC-BAC-2,0.455,0.458,0.493,0.497,0.313,0.277,0.296,0.276,0.281,0.993,0.922,1.11,1.06,1.04,0.868,0.8,0.757,0.818,0.748,0.5
CAL-12T,0.706,0.616,0.694,0.692,0.323,0.254,0.295,0.325,0.265,0.812,0.935,1.16,0.9,0.939,0.823,0.906,0.733,0.822,0.584,0.804
COR-L 105,0.706,0.74,0.738,0.662,0.354,0.321,0.312,0.334,0.357,0.842,0.704,1.05,0.924,0.783,1.05,0.83,0.793,0.806,0.595,0.746
NCI-H2009,0.648,0.689,0.651,0.661,0.736,0.852,0.667,0.756,0.567,0.911,0.954,1.15,0.974,1,1.22,1.28,1.11,1.16,0.887,0.714
NCI-H441,0.458,0.534,0.567,0.252,0.725,0.685,0.728,0.536,0.591,0.572,0.602,0.914,0.825,0.389,0.43,0.437,,0.438,0.41,0.56
NCI-H1437,0.619,0.625,0.54,0.385,0.333,0.43,0.411,0.384,0.397,0.31,0.478,0.514,0.313,0.26,1.05,1.09,0.974,1.02,1.05,0.656
PC-14,0.272,0.151,0.127,0.0867,0.638,0.603,0.557,0.6,0.553,0.873,0.85,0.808,0.544,0.188,0.971,0.978,0.929,0.97,0.901,0.274

Cell Line,relative viability ([1]; first compound 0.002 µM),relative viability ([1]; first compound 0.006325 µM),relative viability ([1]; first compound 0.06325 µM),relative viability ([1]; first compound 0.2 µM),relative viability ([2]; first compound 0.04 µM),relative viability ([2]; first compound 0.1265 µM),relative viability ([2]; first compound 0.4 µM),relative viability ([2]; first compound 1.265 µM),relative viability ([2]; first compound 4 µM),relative viability ([3]; first compound 0.002 µM),relative viability ([3]; first compound 0.006325 µM),relative viability ([3]; first compound 0.02 µM),relative viability ([3]; first compound 0.06325 µM),relative viability ([3]; first compound 0.2 µM),relative viability ([4]; first compound 0.04 µM),relative viability ([4]; first compound 0.1265 µM),relative viability ([4]; first compound 0.4 µM),relative viability ([4]; first compound 1.265 µM),relative viability ([4]; first compound 4 µM),relative viability ([1]; first compound 0.02 µM)
LCLC-103H,0.732,0.707,0.78,0.679,0.505,0.48,0.425,0.472,0.308,1.08,1.01,1,1.23,1.02,1.11,0.948,0.886,1.05,0.704,0.791
COR-L23,0.28,0.406,0.253,0.152,0.196,0.195,0.207,0.225,0.162,0.795,0.939,0.995,0.376,0.179,1,1.04,0.745,0.822,0.864,0.36
H3255,0.563,0.602,0.573,0.519,0.646,0.852,0.583,0.568,0.544,,0.834,0.933,0.692,0.572,0.959,1.01,0.829,0.857,0.801,0.586
NCI-H2126,0.861,0.965,0.889,0.777,0.838,0.905,0.765,0.813,0.626,1.04,1.14,1.19,1.06,1.06,0.71,0.715,0.685,0.698,0.625,0.886
HCC-366,0.345,0.432,0.36,0.332,0.121,0.126,0.107,0.112,0.068,0.97,1.04,1.13,1.05,0.661,0.619,0.598,0.444,0.578,0.253,0.385
LU99A,0.246,0.245,0.28,0.244,0.271,0.292,0.278,0.306,0.318,1.05,1.09,1.17,0.952,0.948,0.473,0.528,0.489,0.43,0.446,0.302
HOP-62,,0.443,0.391,0.387,0.415,0.408,0.392,0.436,0.326,0.741,0.862,0.617,0.722,0.668,1.04,1.04,,1.07,0.884,0.55
HCC-15,0.644,0.724,0.601,0.353,0.556,0.419,0.356,0.384,0.31,0.916,0.995,1.12,1.02,0.562,0.909,0.866,0.857,0.89,0.873,0.804
HARA,0.758,0.859,0.606,0.182,0.0983,0.113,0.121,0.0975,0.101,0.567,1.12,1.17,0.846,0.453,1.21,0.911,0.869,0.887,0.936,0.834
NCI-H1355,0.676,0.709,0.754,0.691,0.534,0.611,0.442,0.488,0.386,0.952,1.33,1.21,1.21,1.15,0.893,0.789,0.599,0.701,0.596,0.731
NCI-H727,0.617,0.654,0.795,0.689,0.669,0.533,0.713,0.652,0.559,0.807,0.892,0.74,0.897,0.742,0.318,0.296,0.281,0.402,0.267,0.692
NCI-H520,0.282,0.385,0.335,0.319,0.468,0.4,0.406,0.405,0.405,0.29,0.64,0.542,0.526,0.395,0.98,0.935,0.856,0.894,0.648,0.356
NCI-H838,0.755,0.75,0.471,0.216,0.268,0.288,0.282,0.258,0.257,0.895,0.708,1.07,0.63,0.208,0.926,1.01,0.891,1.01,0.8,0.837
HCC-44,0.97,0.952,0.964,0.909,0.879,1.02,0.762,0.866,0.756,0.859,0.934,1.03,0.888,0.681,0.662,0.65,0.596,0.476,0.584,0.987
HCC-827,0.666,0.614,0.633,0.416,0.457,0.447,0.389,0.453,0.398,0.961,1.02,1.01,1.01,0.748,0.958,0.961,0.96,0.885,0.965,0.618
SW 1573,0.477,0.45,0.423,0.43,0.168,0.181,0.163,0.201,0.142,1.1,0.881,1.11,0.896,1.04,0.781,0.792,0.728,0.625,0.558,0.472
